Reference: publication PMC11671014 (PLOS Pathogens, 2024)
Where two headings read alike, the source gives them in different places. Values belong to the compound of their own block, whether it stands above or below them.

Columns and labels:
[1] = system: P. falciparum (strain 3D7A); set-up: method as in ref [1] Sanz et al., PloS one 2012; conditions: 10 x IC50; ref [1] Sanz et al., PloS one 2012; cited from earlier work
[2] = system: P. falciparum Brazilian field isolates; assay: Ex vivo drug susceptibility of Brazilian field isolates (P. falciparum); type: cell-based
Description: (§1) Compounds were assayed on ten P. vivax isolates and seven P. falciparum Brazilian isolates collected from mono-infected patients, who had signed a written informed consent form to participate in the study, using previously described methods. The initial parasitemia ranged from 2,100–8,000 parasites/μL for P. vivax and 3,500–9,000 parasites/μL for P. falciparum isolates. Artesunate and chloroquine were assayed in parallel as standard compounds. The analyses included only the isolates that were incubated for ≥ 40 h with the compounds.

[3] = system: P. vivax Brazilian field isolates; assay: Ex vivo drug susceptibility of Brazilian field isolates (P. vivax); type: cell-based
Description: as §1

[4] = system: Primary hepatocytes; assay: Toxicity to primary hepatocyte host cells in the liver stage assay; type: cell-based, human; conditions: Homo sapiens, Hepatocyte, host cells of the NF175 experiment
Description: (§2) Activity against liver stage parasites was performed using a modification of published procedures. Briefly, cryopreserved human primary hepatocytes (NF175: H1500.H15B+ Lot No. HC0-6, TebuBio or NF135: F00995-P Lot No. IRZ, BioIVT) were thawed and seeded at 18,000 cells per well in collagen-coated 384-well microtiter plates in medium containing 10% heat inactivated fetal bovine serum (hiFBS). Cells were cultured at 37°C in 5% CO2. For NF175, medium was replaced by fresh medium containing 10% hiFBS, 5 h post plating. For NF135, medium was replaced by medium containing 0.2% BSA, 24 h post plating. 48 h post plating, salivary glands from Plasmodium-NF175 or NF135-infected Anopheles stephensi mosquitoes were dissected, added to the hepatocytes (10,000 per well/ NF175; or 12,500 per well/ NF135) and allowed to infect for 3 hours. Sporozoites were then aspirated, and compounds diluted in medium containing 10% hiFBS or 0.2% BSA, were added to the hepatocytes. Medium containing 10% hiFBS or 0.2% BSA and compounds was refreshed daily for four days. Hepatocytes were fixed with ice-cold methanol and samples were blocked with 10% hiFBS in PBS. Schizonts were stained with rabbit anti-HSP70 in 10% hiFBS for 1–2 h followed by incubation with a mixture of secondary goat anti-rabbit AlexaFluor 594 antibody and 4′,6-diamidine-2′-phenylindole dihydrochloride (DAPI) in 10% hiFBS for 30 min. Samples were washed with PBS containing 0.05% Tween 20 between different steps. Cells were imaged on a PicoExpress high content imager, and images were analysed automatically using CellReporterXpress software. Data were analysed by logistic regression using a four-parameter (Hill equation) model and a least-squares method to find the best fit.

[5] = system: P. falciparum liver stage schizont (NF175); assay: Liver stage schizont assay in primary human hepatocytes (NF175); type: cell-based; conditions: Plasmodium falciparum, Hepatocyte, 96 h, four days
Description: as §2, with “Hepatocytes were fixed with ice-cold methanol and samples were blocked with 10% hiFBS in PBS. Schizonts were stained with rabbit anti-HSP70 in 10% hiFBS for 1–2 h followed by incubation with a mixture of secondary goat anti-rabbit AlexaFluor 594 antibody and 4′,6-diamidine-2′-phenylindole dihydrochloride (DAPI) in 10% hiFBS for 30 min. Samples were washed with PBS containing 0.05% Tween 20 between different steps.” left out

[6] = system: stage V NF54 strain male and female gametocytes; assay: P. falciparum Dual Gamete Formation Assay (PfDGFA); type: cell-based; conditions: Plasmodium falciparum, 48 h
Description: Inhibition of the viability of stage V male and female gametocytes was assessed in the P. falciparum Dual Gamete Formation Assay (PfDGFA) as described previously. Briefly, mature stage V NF54 strain gametocytes were incubated with test molecules for 48 h in 384-well plates at 37°C. Gametogenesis was then triggered by cooling the plates to room temperature and addition of xanthurenic acid-containing activating medium (also containing anti-Pfs25 antibody (Mab 4B7) conjugated to a Cy3 fluorophore). Twenty minutes after activation, exflagellation was imaged in all wells of the plate using a x4 objective and automated brightfield microscopy. The plate was then incubated at 20°C for a further 24 h in the dark. Thereafter, female gamete formation was quantified by automated identification of Pfs25-positive cells. Automated counts were transformed to percent inhibition values with reference to positive 100 nM Cabamiquine (DDD498) and negative (DMSO) controls. Data represent the means of multiple independent biological repeats.

SMILES: C[C@@H]1CC[C@H]2[C@@H](C)C(=O)O[C@@H]3O[C@@]4(C)CC[C@@H]1[C@]32OO4 [Artemisinin]
Lag phase [1]: 0 h
Log PRR [1]: > 4.8
PCT99.9% [1]: < 24 h

SMILES: O=C1C(O)=C([C@H]2CC[C@H](c3ccc(Cl)cc3)CC2)C(=O)c2ccccc21 [Atovaquone]
IC50 [4]: > 1000 nM
IC50 [5]: 7 ± 3.9 nM
Lag phase [1]: 48 h
Log PRR [1]: 2.9
PCT99.9% [1]: 90 h
Slope [1]: -0.060

SMILES: O=C(NCCN1CCCC1)c1cc(-c2ccc(CN3CCOCC3)cc2)nc2ccc(F)cc12 [Cabamiquine, reference compound]
IC50 ([6]; female, read-out: Dual gamete formation assay (female) IC50(48h)): 2.2 ± 0.1 nM
IC50 ([6]; male, read-out: Dual gamete formation assay (male) IC50(48h)): 2.3 ± 0.4 nM

Continued, in another order:

EC50 ([2]; Plasmodium falciparum; range over n = 7 isolates; read-out: EC50 range, P. falciparum Brazilian field isolates): 0.8 to 3.1 nM
EC50 ([2]; Plasmodium falciparum; read-out: Median EC50, P. falciparum Brazilian field isolates): 2.2 nM
EC50 ([3]; Plasmodium vivax; range over n = 10 isolates; read-out: EC50 range, P. vivax Brazilian field isolates): 0.8 to 3.5 nM
EC50 ([3]; Plasmodium vivax; read-out: Median EC50, P. vivax Brazilian field isolates): 1.7 nM
SMILES: C[C@H]1[C@H](OC(=O)CCC(=O)O)O[C@@H]2O[C@@]3(C)CC[C@H]4[C@H](C)CC[C@@H]1[C@@]24OO3 [Artesunate]

EC50 ([2]; Plasmodium falciparum, read-out: EC50 range, P. falciparum Brazilian field isolates): 172 to 520 nM
EC50 ([2]; Plasmodium falciparum, read-out: Median EC50, P. falciparum Brazilian field isolates): 286 nM
EC50 ([3]; Plasmodium vivax, read-out: EC50 range, P. vivax Brazilian field isolates): 104 to 560 nM
EC50 ([3]; Plasmodium vivax, read-out: Median EC50, P. vivax Brazilian field isolates): 143 nM
SMILES: CCN(CC)CCCC(C)Nc1ccnc2cc(Cl)ccc12 (stereo not shown) [Chloroquine]
Lag phase [1]: 0 h
PCT99.9% [1]: 33.8 h
Slope [1]: -0.094
